Measured values reported in patent US20130203706A1, “COMPOUNDS AND METHODS FOR THE TREATMENT OR PREVENTION OF FLAVIVIRUS INFECTIONS” (Vertex Pharmaceuticals Incorporated, priority 2011, published 2013).

Assay: PK parameters of prodrugs after oral gavage to rats (plasma levels of prodrug and active metabolite by LC/MS/MS)
Type: in vivo
Conditions: orally by gavage, 3 mg/kg, 0.5% MC/0.5% Tween 80/99% water, plasma up to 24 hrs post dose, FIGS. 3-5
Experimental: The prodrug whose PK parameters are to be determined can be formulated as a solution in 0.5% MC/0.5% Tween 80/99% water and administered orally by gavage to rats at a dose of 3 mg/kg. Rats are weighed the day before the study. Rat plasma is sampled predose and at 15, 30 min, 1, 2, 3, 4, 6, 8, 12 and 24 hrs post dose using Instech automatic blood sampling equipment. Blood is collected in tubes containing K2-EDTA and 110 uL plasma are extracted for analysis. Rats are fed ad lib and standard IACUC and SOP protocols are followed. Plasma samples and dose samples are analyzed using LC/MS/MS for both the prodrug compound and the active metabolite. PK parameters for both analytes for each subject are calculated using the measured dose of prodrug. The PK parameters of a prodrug of the invention (compound 10) was measured as described in the preceding paragraph, and are depicted in FIG. 3.
For `CC(C)[C@H](N)C(=O)O[C@H]1CC[C@H](N(c2cc(C#CC(C)(C)C)sc2C(=O)O)C(=O)[C@H]2CC[C@H](C)CC2)CC1` [Compound 1], the “in vivo conversion of prodrug into active metabolite” value (from here on “in vivo conversion”) was “in vivo converted into their active metabolites”. In the case of `C[C@@H](N)C(=O)O[C@H]1CC[C@H](N(c2cc(C#CC(C)(C)C)sc2C(=O)O)C(=O)[C@H]2CC[C@H](C)CC2)CC1` [Compound 10], the “in vivo conversion” value is reported as “in vivo converted into the —OH active metabolite”. With `CC(C)C#Cc1cc(N(C(=O)[C@H]2CC[C@H](C)CC2)[C@H]2CC[C@H](OC(=O)[C@H](C)N)CC2)c(C(=O)O)s1` [Compound 11] the “in vivo conversion” value was “in vivo converted into their active metabolites”.
